Experimental data reported in US20130040935A1, “CYCLIC KETO-ENOLS FOR THERAPY” (BAYER INTELLECTUAL PROPERTY GMBH, priority 2010, published 2013).
Where two headings read alike, the source gives them in different places.

What was measured:
[1] = target: human ACC2 (acetyl-coenzyme A carboxylase 2) (Homo sapiens, UniProt O00763); test: Human ACC2 enzyme assay, Assay B2 (ADP-Glo);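 also: human ACC2 activity read as ADP product, detected by luciferase glow luminescence after residual ATP removal, enzyme near 2 ng/µl in linear range, detection steps at 22 °C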
Chain of human ACC2 (acetyl-coenzyme A carboxylase 2) (O00763 27-2458 limits assumed): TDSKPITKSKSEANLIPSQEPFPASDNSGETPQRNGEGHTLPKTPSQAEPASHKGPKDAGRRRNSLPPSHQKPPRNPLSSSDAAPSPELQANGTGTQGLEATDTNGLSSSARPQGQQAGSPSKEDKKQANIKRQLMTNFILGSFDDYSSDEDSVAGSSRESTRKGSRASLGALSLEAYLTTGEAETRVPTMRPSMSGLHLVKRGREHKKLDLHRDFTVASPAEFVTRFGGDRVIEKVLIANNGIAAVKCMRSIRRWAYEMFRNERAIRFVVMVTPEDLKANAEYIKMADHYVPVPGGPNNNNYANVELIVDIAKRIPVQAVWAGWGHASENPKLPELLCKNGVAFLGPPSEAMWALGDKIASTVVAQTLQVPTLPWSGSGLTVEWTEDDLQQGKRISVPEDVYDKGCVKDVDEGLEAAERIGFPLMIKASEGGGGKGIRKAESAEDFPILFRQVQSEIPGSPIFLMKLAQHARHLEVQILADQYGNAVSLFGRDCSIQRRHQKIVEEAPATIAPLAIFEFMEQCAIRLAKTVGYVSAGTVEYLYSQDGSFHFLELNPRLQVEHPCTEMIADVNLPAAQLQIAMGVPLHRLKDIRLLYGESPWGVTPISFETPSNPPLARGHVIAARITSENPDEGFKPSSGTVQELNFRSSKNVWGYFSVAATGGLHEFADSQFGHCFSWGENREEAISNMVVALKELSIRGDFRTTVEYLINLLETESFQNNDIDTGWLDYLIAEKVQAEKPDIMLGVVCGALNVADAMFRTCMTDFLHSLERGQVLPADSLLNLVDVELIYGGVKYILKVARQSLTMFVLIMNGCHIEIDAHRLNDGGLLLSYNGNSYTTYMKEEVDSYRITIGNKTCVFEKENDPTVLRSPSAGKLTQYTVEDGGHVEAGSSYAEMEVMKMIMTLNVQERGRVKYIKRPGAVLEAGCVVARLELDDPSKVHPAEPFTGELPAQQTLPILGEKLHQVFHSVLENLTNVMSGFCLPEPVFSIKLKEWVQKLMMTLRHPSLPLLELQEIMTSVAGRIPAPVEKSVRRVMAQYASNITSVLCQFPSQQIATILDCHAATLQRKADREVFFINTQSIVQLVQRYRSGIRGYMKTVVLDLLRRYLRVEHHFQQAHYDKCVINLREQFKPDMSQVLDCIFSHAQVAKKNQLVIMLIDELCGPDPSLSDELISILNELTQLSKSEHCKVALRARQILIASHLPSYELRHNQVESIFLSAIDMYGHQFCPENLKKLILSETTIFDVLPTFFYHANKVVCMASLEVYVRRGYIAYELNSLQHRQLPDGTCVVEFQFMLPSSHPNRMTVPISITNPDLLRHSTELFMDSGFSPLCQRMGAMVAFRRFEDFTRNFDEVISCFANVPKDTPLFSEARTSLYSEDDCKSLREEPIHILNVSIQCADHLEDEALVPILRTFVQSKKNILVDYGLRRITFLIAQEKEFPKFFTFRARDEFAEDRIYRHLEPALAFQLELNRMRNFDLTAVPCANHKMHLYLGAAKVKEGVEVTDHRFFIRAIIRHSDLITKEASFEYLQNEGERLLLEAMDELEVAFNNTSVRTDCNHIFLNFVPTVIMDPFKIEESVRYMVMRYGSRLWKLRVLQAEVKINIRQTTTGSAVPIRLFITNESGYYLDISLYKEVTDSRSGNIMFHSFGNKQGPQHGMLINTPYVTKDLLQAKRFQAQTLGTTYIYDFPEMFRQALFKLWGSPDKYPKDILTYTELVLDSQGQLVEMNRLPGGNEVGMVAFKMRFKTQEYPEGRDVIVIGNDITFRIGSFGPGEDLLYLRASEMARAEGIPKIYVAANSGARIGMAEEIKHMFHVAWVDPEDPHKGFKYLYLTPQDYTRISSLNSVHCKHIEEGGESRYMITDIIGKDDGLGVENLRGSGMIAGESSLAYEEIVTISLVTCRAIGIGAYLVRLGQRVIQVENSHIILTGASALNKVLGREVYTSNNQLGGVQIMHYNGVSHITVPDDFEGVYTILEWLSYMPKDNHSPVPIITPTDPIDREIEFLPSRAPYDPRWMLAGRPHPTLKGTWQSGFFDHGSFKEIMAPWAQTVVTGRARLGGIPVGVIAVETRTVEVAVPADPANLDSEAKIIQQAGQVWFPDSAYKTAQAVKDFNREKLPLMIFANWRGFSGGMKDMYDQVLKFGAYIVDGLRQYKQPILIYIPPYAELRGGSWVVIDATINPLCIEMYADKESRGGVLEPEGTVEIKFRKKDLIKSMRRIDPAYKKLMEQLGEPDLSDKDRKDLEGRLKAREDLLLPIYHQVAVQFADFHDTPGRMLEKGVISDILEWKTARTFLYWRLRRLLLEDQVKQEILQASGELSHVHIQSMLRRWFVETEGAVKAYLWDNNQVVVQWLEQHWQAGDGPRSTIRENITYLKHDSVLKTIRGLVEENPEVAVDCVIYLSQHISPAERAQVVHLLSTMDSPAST

[2] = target: recombinant human ACC1 (Homo sapiens, UniProt Q13085); test: Human ACC1 enzyme assay, Assay A1 (HTRF ADP immunoassay);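 also: ADP generated by the enzyme quantified via competitive time-resolved FRET, read as europium cryptate to d2 energy transfer after 1 h at 22 °C with labelled ADP tracer and anti-ADP antibody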
Experimental: The inhibitory activity of the substances of this invention with regard to acetyl-CoA carboxylase 1 (ACC1) was measured using the ACC1 assay described in the paragraphs below. The basic principle of the assay is the measurement of adenosine diphosphate (ADP), which is formed as a by-product, by means of an HTRF®-based competitive immunoassay (HTRF=Homogeneous Time Resolved Fluorescence).
Typical concentrations were in the range of 2.5 ng/μl.
The amount of complex between d2-labelled ADP and europium cryptate-labelled anti-ADP antibody was then determined by measuring the resonance energy transfer from the europium cryptate to d2.

[3] = target: T1, human ACC1 (acetyl-coenzyme A carboxylase alpha transcript variant 1) (Homo sapiens, UniProt Q13085); test: Human ACC1 enzyme assay, Assay B1 (ADP-Glo); format: biochemical
T1 construct: FLAG (C); made in house; host or cells: baculovirus-infected insect cells (Hi5)
Experimental: Essentially, the enzyme activity is measured by quantifying the adenosine diphosphate (ADP) formed as a byproduct of the enzyme reactions using the ADP-Glo™ detection system from Promega. In this test, initially the adenosine triphosphate (ATP) not consumed in the enzyme reaction is converted quantitatively with an adenylate cyclase (“ADP-GLO reagent”) into cAMP, the adenylate cyclase is then stopped and (“kinase detection reagent”) the ADP formed is subsequently converted into ATP, which is converted in a luciferase-based reaction into a glow luminescence signal.
The concentration of the hACC1 was adapted to the respective activity of the enzyme and adjusted such that the assay operated in the linear range. […] The amount of light emitted was taken as a measure for the amount of ADP formed and thus for the enzyme activity of the hACC1.

[4] = system: MCF7; test: Cell proliferation assay (CellTiter-Glo, 96 h), MCF7; format: cell-based; conditions: Homo sapiens
Experimental: In accordance with the invention, the substances were tested in cell-based assays for the ability of the substances of inhibiting tumour cell proliferation after a 96-hour incubation with the substance. Cell viability was tested using the CellTiter-Glo® luminescent cell viability assay (Promega). The cells were sown at a density of 2000-5000 cells/well (depending on the cell line) in 100 μl growth medium on 96-well microtitre plates. For each cell line examined, cells were sown on a separate plate to determine the luminescence at t=0 hours and t=96 hours. After overnight incubation at 37° C., the luminescence values for the t=0 samples were determined. The dose plates for the t=96 hours points in time were treated with substances diluted with growth medium. The cells were then incubated at 37° C. for 96 hours, and the luminescence values for the t=96 hours sample were then determined. For data analysis, the t=0 values were subtracted from the t=96 hour values for treated and untreated samples. The differences in luminescence in percent between substance-treated samples and control values were used to determine the growth inhibition in percent.
The substances were tested in the following cell lines which represent the stated indications in an exemplary manner: […]

[5] = target: acetyl-CoA carboxylase 2 (ACC2) (Homo sapiens, UniProt O00763); test: Human ACC2 enzyme assay, Assay A2 (HTRF ADP immunoassay);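 also: ADP generated by ACC2 quantified via competitive time-resolved FRET between europium cryptate anti-ADP antibody and d2-tagged ADP, enzyme kept in linear range near 0.6 ng/µl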
Chain of acetyl-CoA carboxylase 2 (ACC2) (O00763 39-2458 limits assumed): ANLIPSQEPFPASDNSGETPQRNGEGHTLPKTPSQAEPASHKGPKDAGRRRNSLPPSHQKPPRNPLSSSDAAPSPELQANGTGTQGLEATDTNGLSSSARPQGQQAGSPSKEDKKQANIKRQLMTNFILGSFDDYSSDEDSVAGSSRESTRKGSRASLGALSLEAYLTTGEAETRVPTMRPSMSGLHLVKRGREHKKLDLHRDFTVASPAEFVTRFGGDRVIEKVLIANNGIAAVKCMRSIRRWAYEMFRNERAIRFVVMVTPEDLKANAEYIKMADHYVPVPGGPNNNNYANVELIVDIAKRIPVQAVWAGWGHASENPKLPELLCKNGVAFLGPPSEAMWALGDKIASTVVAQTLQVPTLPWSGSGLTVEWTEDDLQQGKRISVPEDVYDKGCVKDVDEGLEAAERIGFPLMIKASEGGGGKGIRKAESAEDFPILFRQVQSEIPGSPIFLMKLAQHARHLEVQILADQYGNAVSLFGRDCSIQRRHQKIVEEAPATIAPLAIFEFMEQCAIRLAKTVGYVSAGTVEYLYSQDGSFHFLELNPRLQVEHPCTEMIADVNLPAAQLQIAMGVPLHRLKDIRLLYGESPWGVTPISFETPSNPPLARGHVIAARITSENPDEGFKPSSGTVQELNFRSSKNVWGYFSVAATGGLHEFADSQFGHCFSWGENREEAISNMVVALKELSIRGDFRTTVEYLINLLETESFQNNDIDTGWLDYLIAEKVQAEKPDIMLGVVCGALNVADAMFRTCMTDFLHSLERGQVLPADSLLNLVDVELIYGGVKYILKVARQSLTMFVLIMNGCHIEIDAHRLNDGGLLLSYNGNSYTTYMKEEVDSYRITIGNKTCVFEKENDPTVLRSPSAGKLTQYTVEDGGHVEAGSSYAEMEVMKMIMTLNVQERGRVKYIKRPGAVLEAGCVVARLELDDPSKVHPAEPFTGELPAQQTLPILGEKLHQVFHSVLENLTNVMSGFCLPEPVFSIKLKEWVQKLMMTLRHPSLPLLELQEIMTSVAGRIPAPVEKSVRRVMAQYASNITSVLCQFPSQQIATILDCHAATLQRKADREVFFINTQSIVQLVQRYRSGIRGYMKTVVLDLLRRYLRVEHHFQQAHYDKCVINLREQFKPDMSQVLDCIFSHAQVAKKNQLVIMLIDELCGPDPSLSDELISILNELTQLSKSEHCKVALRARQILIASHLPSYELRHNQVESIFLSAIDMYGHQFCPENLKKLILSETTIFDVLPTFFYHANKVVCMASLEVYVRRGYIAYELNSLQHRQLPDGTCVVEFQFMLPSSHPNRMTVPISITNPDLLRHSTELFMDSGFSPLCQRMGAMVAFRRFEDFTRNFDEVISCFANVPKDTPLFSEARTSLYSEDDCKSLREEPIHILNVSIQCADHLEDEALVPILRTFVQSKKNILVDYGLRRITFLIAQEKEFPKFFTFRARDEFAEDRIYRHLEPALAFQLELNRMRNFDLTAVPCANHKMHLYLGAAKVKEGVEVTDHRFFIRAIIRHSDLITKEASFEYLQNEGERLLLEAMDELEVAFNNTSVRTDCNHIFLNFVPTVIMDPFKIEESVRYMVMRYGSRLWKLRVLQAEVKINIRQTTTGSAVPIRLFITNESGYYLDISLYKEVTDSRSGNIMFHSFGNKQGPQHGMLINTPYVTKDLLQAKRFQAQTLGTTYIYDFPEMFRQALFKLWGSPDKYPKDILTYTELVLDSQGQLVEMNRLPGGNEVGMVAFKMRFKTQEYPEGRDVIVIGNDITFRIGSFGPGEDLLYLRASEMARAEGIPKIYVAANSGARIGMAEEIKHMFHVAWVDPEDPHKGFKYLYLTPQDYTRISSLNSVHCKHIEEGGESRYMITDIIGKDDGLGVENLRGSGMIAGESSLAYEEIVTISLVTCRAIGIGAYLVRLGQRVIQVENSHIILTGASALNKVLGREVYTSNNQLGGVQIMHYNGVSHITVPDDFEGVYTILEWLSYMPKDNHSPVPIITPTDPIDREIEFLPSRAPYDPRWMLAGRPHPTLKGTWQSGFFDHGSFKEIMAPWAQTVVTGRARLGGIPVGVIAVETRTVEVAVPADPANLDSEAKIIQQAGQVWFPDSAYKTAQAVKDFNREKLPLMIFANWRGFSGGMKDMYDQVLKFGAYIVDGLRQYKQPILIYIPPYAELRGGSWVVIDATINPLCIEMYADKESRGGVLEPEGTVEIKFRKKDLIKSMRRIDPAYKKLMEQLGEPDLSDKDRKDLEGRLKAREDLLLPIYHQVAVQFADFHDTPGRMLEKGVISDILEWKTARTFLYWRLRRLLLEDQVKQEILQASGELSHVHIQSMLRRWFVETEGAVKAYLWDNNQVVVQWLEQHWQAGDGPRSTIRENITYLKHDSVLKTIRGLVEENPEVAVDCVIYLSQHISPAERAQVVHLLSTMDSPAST
Experimental: The inhibitory activity of the substances of this invention with regard to acetyl-CoA carboxylase 2 (ACC2) was measured using the ACC2 assay described in the paragraphs below. The basic principle of the assay is the measurement of adenosine diphosphate (ADP), which is formed as a by-product, by means of an HTRF®-based competitive immunoassay (HTRF=Homogeneous Time Resolved Fluorescence).
The amount of complex of d2-labelled ADP and europium cryptate-labelled anti-ADP antibody was then determined by measuring the resonance energy transfer of europium cryptate to d2.

[6] = MCF7, Table 7, 96-hour incubation
[7] = Assay B1, read-out: ACC 1 (=B1) IC50
[8] = MCF7, Table 9a, 96-hour incubation
[9] = Assay B1, ADP-Glo, read-out: ACC 1 (=B1) IC50

| SMILES | IC50 [1] [nM] | IC50 [2] [nM] | IC50 [4, 6] [nM] | IC50 [3, 7] [nM] | IC50 ([4]; MCF7 cells) [nM] | other results |
| --- | --- | --- | --- | --- | --- | --- |
| CO[C@H]1CC[C@]2(CC1)NC(=O)C(c1cc(-c3ccc(Cl)cc3F)ccc1C)=C2O [1-142, (5s,8s)-3-(4′-Chloro-2′-fluoro-4-methylbiphenyl-3-yl)-4-hydroxy-8-methoxy-1-azaspiro[4.5]dec-3-en-2-one] | 957 | 337 | 106 | – | – | IC50 [3]: 704 nM; IC50 [5]: 551 nM |
| Cc1ccc(-c2ccc(F)c(F)c2)cc1C1=C(O)[C@]2(CC[C@](O)(C(F)(F)F)CC2)NC1=O [1-124, (5r,8r)-3-(3′,4′-Difluoro-4-methylbiphenyl-3-yl)-4,8-dihydroxy-8-(trifluoromethyl)-1-azaspiro[4.5]dec-3-en-2-one] | > 20000 | 458 | 1700 | 467 | – | IC50 [5]: > 20000 nM |
| CCc1cc(C)cc(Br)c1C1=C(O)C2(CCCCC2)NC1=O [V-4, reference compound] | – | 5400 | – | – | – | IC50 [5]: > 20000 nM |
| O=C1N[C@]2(CC[C@@H](C(F)(F)F)CC2)C(O)=C1c1cc(-c2ccc(Cl)c(F)c2)ccc1Cl [1-92, (5s,8s)-3-(4,4′-Dichloro-3′-fluorobiphenyl-3-yl)-4-hydroxy-8-(trifluoromethyl)-1-azaspiro[4.5]dec-3-en-2-one] | 1660 | 226 | – | – | – | IC50 [3]: 72 nM; IC50 [5]: 1450 nM |
| Cc1ccc(-c2ccc(F)c(F)c2)cc1C1=C(O)[C@]2(CC[C@H](C)CC2)NC1=O [1-145, (5s,8s)-3-(3′,4′-Difluoro-4-methylbiphenyl-3-yl)-4-hydroxy-8-methyl-1-azaspiro[4.5]dec-3-en-2-one] | – | 194 | 273 | – | – | IC50 [5]: 3310 nM |
| Cc1cc(C)c(-c2ccc(Cl)cc2)cc1C1=C(O)C(C)(C)CCC1=O [7-4, 2-(4′-chloro-4,6-dimethylbiphenyl-3-yl)-3-hydroxy-4,4-dimethylcyclohex-2-en-1-one] | > 20000 | – | – | 7110 | – | IC50 [4, 8]: 2630 nM |
| Cc1cc(C)c(-c2ccc(Cl)cc2)cc1C1=C(O)C2(CCCCC2)SC1=O [3-3, 3-(4′-chloro-4,6-dimethylbiphenyl-3-yl)-4-hydroxy-1-thiaspiro[4.5]dec-3-en-2-one] | 1150 | – | – | 265 | – | IC50 [4, 8]: 575 nM |
| Cc1ccc(-c2ccc(Cl)c(F)c2)cc1C1=C(O)[C@]2(CC[C@H](C(F)(F)F)CC2)NC1=O [1-90, (5s,8s)-3-(4′-Chloro-3′-fluoro-4-methylbiphenyl-3-yl)-4-hydroxy-8-(trifluoromethyl)-1-azaspiro[4.5]dec-3-en-2-one] | 595 | 143 | – | 63 | – | IC50 [5]: 331 nM |
| Cc1ccc(-c2ccc(Cl)cc2Cl)cc1C1=C(O)C2(CCCCC2)CC1=O [6-2, 3-(2′,4′-dichloro-4-methylbiphenyl-3-yl)-4-hydroxyspiro[4.5]dec-3-en-2-one] | 3230 | – | – | 263 | – | IC50 [4, 8]: 194 nM |
| COCC1CCC2(CC1)OC(=O)C(c1c(C)ccc(-c3ccc(Cl)cc3)c1C)=C2O (stereo not shown) [2-17, 3-(4′-chloro-2,4-dimethylbiphenyl-3-yl)-4-hydroxy-8-(methoxymethyl)-1-oxaspiro[4.5]dec-3-en-2-one] | 1180 | – | – | – | 400 | IC50 [3, 9]: 58 nM |
| Cc1c(F)cc(-c2ccc(Cl)cc2)cc1C1=C(O)[C@]2(CC[C@H](C(F)(F)F)CC2)NC1=O [1-91, (5s,8s)-3-(4′-Chloro 5 fluoro 4-methylbiphenyl-3-yl)-4-hydroxy-8-(trifluoromethyl)-1-azaspiro[4.5]dec-3-en-2-one] | 4990 | 302 | – | – | – | IC50 [3]: 266 nM; IC50 [5]: 5010 nM |
| Cc1ccc(-c2ccc(Cl)cc2)cc1C1=C(O)C(C)(C)C(C)(C)NC1=O [9-14, 3-(4′-chloro-4-methylbiphenyl-3-yl)-4-hydroxy-5,5,6,6-tetramethyl-5,6-dihydropyridin-2(1H)-one] | > 20000 | – | – | 6470 | 1460 | – |
| Cc1cc(C)c(-c2ccc(Cl)cc2)cc1C1=C(O)C(C)OC1=O (stereo not shown) [2-45, 3-(4′-chloro-4,6-dimethylbiphenyl-3-yl)-4-hydroxy-5-methylfuran-2(5H)-one] | 17500 | – | – | – | 6700 | IC50 [3]: 1830 nM |
| Cc1ccc(-c2ccc(Cl)cc2)cc1-c1c(O)c2ccc(Cl)cc2[nH]c1=O [9-11, 7-chloro-3-(4′-chloro-4-methylbiphenyl-3-yl)-4-hydroxyquinolin-2(1H)-one] | – | – | – | 397 | 299 | IC50 ([1]; read-out: ACC 2 (=B2) IC50, Assay B2): 4070 nM |
| COC1CCCC2(C1)OC(=O)C(c1c(C)cc(C)c(-c3ccc(Cl)cc3)c1C)=C2O (stereo not shown) [2-12, 3-(4′-chloro-2,4,6-trimethylbiphenyl-3-yl)-4-hydroxy-7-methoxy-1-oxaspiro[4.5]dec-3-en-2-one] | 3420 | – | – | – | 1240 | IC50 [3]: 4260 nM |
| O=C1NC2(CCCCC2)C(O)=C1c1cc(-c2ccc(Cl)cc2)ccc1Cl [1-140, 3-(4,4′-Dichlorobiphenyl-3-yl)-4-hydroxy-1-azaspiro[4.5]dec-3-en-2-one] | – | 323 | 73 | – | – | IC50 [5]: 1520 nM |
| CO[C@H]1CC[C@]2(CC1)NC(=O)C(c1c(C)ccc(-c3ccc(F)cc3)c1C)=C2O [1-45, (5s,8s)-3-(4′-fluoro-2,4-dimethylbiphenyl-3-yl)-4-hydroxy-8-methoxy-1-azaspiro[4.5]dec-3-en-2-one] | 8830 | – | 626 | – | – | IC50 [3]: 701 nM |
| Cc1ccc(-c2ccc(Cl)cc2)cc1C1=C(O)C2(CCCCC2)CNC1=O [9-3, 4-(4′-chloro-4-methylbiphenyl-3-yl)-5-hydroxy-2-azaspiro[5.5]undec-4-en-3-one] | > 20000 | – | – | 2340 | 1530 | – |
| Cc1ccc(-c2ccc(Cl)cc2)c(C)c1C1=C(O)[C@]2(CC[C@]3(CCCO3)CC2)OC1=O [2-26, (5s,8r)-3-(4′-chloro-2,4-dimethylbiphenyl-3-yl)-4-hydroxy-1,9-dioxadispiro[4.2.4.2]tetradec-3-en-2-one] | > 20000 | – | – | – | 5520 | IC50 [3, 9]: 6110 nM |
| Cc1ccc(-c2ccc(C)c(C3=C(O)C4(CCCCC4)CC3=O)c2)cc1 [6-1, 3-(4,4′-dimethylbiphenyl-3-yl)-4-hydroxyspiro[4.5]dec-3-en-2-one] | 19700 | – | – | 411 | – | IC50 [4, 8]: 545 nM |
| Cc1ccc(-c2ccc(Cl)cc2)c(C)c1C1=C(O)C2(CCC(C)CC2)NC1=O (stereo not shown) [1-4, 3-(4′-chloro-2,4-dimethylbiphenyl-3-yl)-4-hydroxy-8-methyl-1-azaspiro[4.5]dec-3-en-2-one] | 558 | – | 54 | 357 | – | – |
| COCCC1CCCC2(C1)OC(=O)C(c1cc(-c3ccc(Cl)cc3)ccc1C)=C2O (stereo not shown) [2-18, 3-(4′-chloro-4-methylbiphenyl-3-yl)-4-hydroxy-7-(2 methoxyethyl)-1-oxaspiro[4.5]dec-3-en-2-one] | 12200 | – | – | – | 935 | IC50 [3, 9]: 276 nM |
| Cc1ccc(-c2ccc(C(F)(F)F)cc2)cc1C1=C(O)C2(CCCCC2)NC1=O [1-12, 4-hydroxy-3-[4 methyl-4′-(trifluoromethyl)biphenyl-3-yl]-1-azaspiro[4.5]dec-3-en-2-one] | > 20000 | – | 322 | 871 | – | – |
| Cc1cc(C)c(-c2ccc(Cl)cc2)cc1C1=C(O)C2(CCCCC2)CC1=O [6-8, 3-(4′-chloro-4,6-dimethylbiphenyl-3-yl)-4-hydroxyspiro[4.5]dec-3-en-2-one] | 151 | – | – | 1160 | – | IC50 [4, 8]: 254 nM |
| CO[C@H]1CC[C@]2(CC1)NC(=O)C(c1c(C)ccc(-c3ccc(Cl)cc3)c1C)=C2O [1-121, (5s,8s)-3-(4′-Chloro-2,4-dimethylbiphenyl-3-yl)-4-hydroxy-8-methoxy-1-azaspiro[4.5]dec-3-en-2-one] | 1010 | 402 | 233 | – | – | IC50 [3]: 172 nM |
| COCC1CCC2(CC1)OC(=O)C(c1cc(-c3ccc(Cl)cc3)ccc1C)=C2O (stereo not shown) [2-20, 3-(4′-chloro-4-methylbiphenyl-3-yl)-4-hydroxy-8-(methoxymethyl)-1-oxaspiro[4.5]dec-3-en-2-one] | 1720 | – | – | – | 214 | IC50 [3, 9]: 102 nM |
| Cc1cc(C)c(-c2ccc(Cl)cc2)c(C)c1C1=C(O)C2(CCCCC2)CC1=O [6-9, 3-(4′-chloro-2,4,6-trimethylbiphenyl-3-yl)-4-hydroxyspiro[4.5]dec-3-en-2-one] | 2120 | – | – | – | – | IC50 [3]: ≥ 20000 nM; IC50 [4, 8]: 1520 nM |
| Cc1ccc(-c2ccc(Cl)cc2)cc1C1=C(O)C2(CCCCCCC2)NC1=O [1-23, 3-(4′-chloro-4-methylbiphenyl-3-yl)-4-hydroxy-1-azaspiro[4.7]dodec-3-en-2-one] | 2330 | – | 262 | 459 | – | – |
